Earlier results as cited in patent EP2251003A2, “Ophthalmic Compositions for the Re-epithelialization, Healing and Disinfection of the Eye Tissues” (priority 2009, dated 2010).
Read-outs that look alike come from different tables or passages of the source.

Columns and labels:
[1] = rat, more recent studies
eye of the rabbit [2] = conditions: topical
[3] = 50 mg/kg/day administered orally to rats, subchronic
[4] = topical use, reported in the literature
[5] = mouse
fibroblast = conditions: in vitro
eye of the rabbit [6] = conditions: 5% ophthalmic solution, topical application
[7] = eyedrops containing dexpanthenol
[8] = 1.5 g/kg/day administered for 90 days
[9] = 1 g/kg/day, rat
[10] = in vivo
cornea of the rabbit = conditions: administered to the cornea of the rabbit

SMILES: N=C(N)c1ccc(OCCCCCCOc2ccc(C(=N)N)cc2)cc1 [hexamidine diisethionate]
- oral acute toxicity, expressed as LD50 [1]: 750 mg/kg
- eye irritation (eye of the rabbit [2]; aqueous solutions containing 0.10-0.11%): slight, transient irritation
- eye irritation (eye of the rabbit [2]; concentration of 0.050%): no reaction
- toxic effect [3]: did not show any toxic effect
- cases of sensitisation [4]: nine cases out of millions of subjects
- intraperit. LD50 ([5]; intraperitoneal): 1060 mg/kg
- oral LD Lo ([5]; oral): 100 mg/kg
- oral LD50 ([5]; oral, Toxicology and Applied Pharmacology 1975): 280 mg/kg
- oral acute toxicity, expressed as LD50 ([5]; oral, more recent studies): 710 to 2500 mg/kg

SMILES: CC(C)(CO)[C@@H](O)C(=O)NCCCO [dexpanthenol]
- fibroblast proliferation (fibroblast): activation of fibroblast proliferation
- extent and time of re-epithelialisation of the corneal endothelium (eye of the rabbit [6]): significantly stimulated
- ocular tolerability [7]: excellent

SMILES: CS(C)(=O)=O [MSM, Methylsulphonylmethane]
- toxic effect [8]: do not have any toxic effect
- toxic effects on fertility, gestation and neonatal development [9]: absence of toxic effects
- absorption and urinary elimination [10]: rapid absorption and rapid urinary elimination
- intraocular absorption of other substances (cornea of the rabbit): promotes intraocular absorption of disodium edetate and other substances
